Measured values published in US9840513B2 (AbbVie S.à.r.l., priority 2015, dated 2017).

Target: T1, F508delCFTR cell surface expression in CFBE41o-F508delCFTR-HRP cells (Homo sapiens, UniProt P13569, DEL508-508)
T1 construct: fused on or other part: Horseradish peroxidase (HRP) reporter inserted in the fourth exofacial (extracellular) loop of CFTR; expression is doxycycline-inducible
Test: Cell Surface Expression-Horse Radish Peroxidase (CSE-HRP) Assay
Format: cell-based
Conditions: for EC50: CFBE41o-F508delCFTR-HRP cells, 18-24 hours at 33° C., 8-point curve, highest concentration 20 μM; for Maximum % activity (%): maximum at any tested concentration, normalized to on-plate positive control (3 μM)
Outline: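 Correctors incubated 18-24 h at 33 °C on doxycycline-induced (0.5 μg/mL, 72 h) CFBE41o-F508delCFTR-HRP cells, 3-fold series from 20 μM. After DPBS washes, luminol luminescence read; activity expressed relative to DMSO and a 3 μM positive control, EC50 fitted from triplicate plates.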

T1 sequence (P13569 with tags, fused parts or gaps DEL508-508 limits assumed): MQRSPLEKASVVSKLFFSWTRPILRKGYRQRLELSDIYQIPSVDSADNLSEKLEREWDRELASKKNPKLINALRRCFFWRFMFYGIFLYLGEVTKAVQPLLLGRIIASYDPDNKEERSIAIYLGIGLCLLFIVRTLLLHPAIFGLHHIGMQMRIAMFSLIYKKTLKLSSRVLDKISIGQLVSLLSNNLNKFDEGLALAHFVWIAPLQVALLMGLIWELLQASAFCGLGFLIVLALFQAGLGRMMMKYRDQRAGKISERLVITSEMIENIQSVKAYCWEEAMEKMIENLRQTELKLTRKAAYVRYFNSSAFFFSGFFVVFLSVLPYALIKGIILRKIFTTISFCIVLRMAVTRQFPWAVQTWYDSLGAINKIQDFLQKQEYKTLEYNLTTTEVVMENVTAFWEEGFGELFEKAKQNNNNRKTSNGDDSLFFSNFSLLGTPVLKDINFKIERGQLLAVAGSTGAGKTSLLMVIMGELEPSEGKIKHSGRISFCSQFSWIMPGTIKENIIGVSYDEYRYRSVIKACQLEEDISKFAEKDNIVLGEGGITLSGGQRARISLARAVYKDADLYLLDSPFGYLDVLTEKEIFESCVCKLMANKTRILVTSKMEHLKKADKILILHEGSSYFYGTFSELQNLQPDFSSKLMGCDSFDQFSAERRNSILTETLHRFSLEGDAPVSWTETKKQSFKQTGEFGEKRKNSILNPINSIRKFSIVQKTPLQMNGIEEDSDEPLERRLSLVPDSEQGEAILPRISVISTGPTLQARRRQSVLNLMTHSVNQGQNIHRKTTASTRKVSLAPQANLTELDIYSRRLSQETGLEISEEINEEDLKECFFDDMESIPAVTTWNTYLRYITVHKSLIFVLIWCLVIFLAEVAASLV
T1 sequence (P13569 919-1480 limits assumed, stated change not applied): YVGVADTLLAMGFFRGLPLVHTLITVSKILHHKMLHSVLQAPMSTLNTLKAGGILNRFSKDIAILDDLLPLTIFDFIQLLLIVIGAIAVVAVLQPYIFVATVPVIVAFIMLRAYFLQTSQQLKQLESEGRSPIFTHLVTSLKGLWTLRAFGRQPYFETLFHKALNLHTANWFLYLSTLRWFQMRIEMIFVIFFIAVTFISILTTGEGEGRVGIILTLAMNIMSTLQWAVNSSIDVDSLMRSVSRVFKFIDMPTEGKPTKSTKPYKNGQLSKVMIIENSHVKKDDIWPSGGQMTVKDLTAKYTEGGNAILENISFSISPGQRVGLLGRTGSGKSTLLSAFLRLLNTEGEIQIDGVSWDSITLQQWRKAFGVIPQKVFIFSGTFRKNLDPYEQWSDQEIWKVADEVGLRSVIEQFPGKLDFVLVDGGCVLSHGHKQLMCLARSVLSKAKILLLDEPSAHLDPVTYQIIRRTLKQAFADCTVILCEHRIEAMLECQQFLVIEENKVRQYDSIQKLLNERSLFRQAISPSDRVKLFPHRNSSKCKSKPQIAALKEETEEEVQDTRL

Row | SMILES | EC50 | Maximum % activity (%)
1 | Cc1ccc(NC(=O)[C@@]2(C)COc3cc4c(cc32)OC(F)(F)O4)nc1-c1cccc(C(O)CO)c1 (stereo partly drawn) [Example 126, (7R)—N-{6-[3-(1,2-dihydroxyethyl)phenyl]-5-methylpyridin-2-yl}-2,2-difluoro-7-methyl-6,7-dihydro-2H-furo[2,3-f][1,3]benzodioxole-7-carboxamide] | 620 nM | 140%
2 | Cc1ccc(NC(=O)[C@@]2(C)COc3cc4c(cc32)OC(F)(F)O4)nc1-c1cc(C(=O)O)cs1 [Example 127, 5-(6-{[(7R)-2,2-difluoro-7-methyl-6,7-dihydro-2H-furo[2,3-f][1,3]benzodioxole-7-carbonyl]amino}-3-methylpyridin-2-yl)thiophene-3-carboxylic acid] | 460 nM | 140%
3 | C[C@]1(C(=O)Nc2cccc(-c3cc(C(=O)O)ccc3F)n2)COc2cc3c(cc21)OC(F)(F)O3 [Example 128, 3-(6-{[(7R)-2,2-difluoro-7-methyl-6,7-dihydro-2H-furo[2,3-f][1,3]benzodioxole-7-carbonyl]amino}pyridin-2-yl)-4-fluorobenzoic acid] | 4960 nM | 172%
4 | Cc1ccc(C(=O)O)cc1-c1cccc(NC(=O)[C@@]2(C)COc3cc4c(cc32)OC(F)(F)O4)n1 [Example 129, 3-(6-{[(7R)-2,2-difluoro-7-methyl-6,7-dihydro-2H-furo[2,3-f][1,3]benzodioxole-7-carbonyl]amino}pyridin-2-yl)-4-methylbenzoic acid] | 2260 nM | 129%
5 | CC(C)(C)c1cc2cc(NC(=O)[C@@]3(C)COc4cc5c(cc43)OC(F)(F)O5)ccc2[nH]1 [Example 131, (7R)—N-(2-tert-butyl-1H-indol-5-yl)-2,2-difluoro-7-methyl-6,7-dihydro-2H-furo[2,3-f][1,3]benzodioxole-7-carboxamide] | 1310 nM | 173%
6 | CC(C)(C)c1cc2cc(NC(=O)[C@@]3(C)COc4cc5c(cc43)OC(F)(F)O5)c(F)cc2n1C[C@@H](O)COCc1ccccc1 [Example 132, (7R)—N-{1-[(2R)-3-(benzyloxy)-2-hydroxypropyl]-2-tert-butyl-6-fluoro-1H-indol-5-yl}-2,2-difluoro-7-methyl-6,7-dihydro-2H-furo[2,3-f][1,3]benzodioxole-7-carboxamide] | 330 nM | 138%
7 | CC(C)(C)c1cc2cc(NC(=O)[C@@]3(C)COc4cc5c(cc43)OC(F)(F)O5)c(F)cc2n1C[C@@H](O)CO [Example 133, (7R)—N-{2-tert-butyl-1-[(2R)-2,3-dihydroxypropyl]-6-fluoro-1H-indol-5-yl}-2,2-difluoro-7-methyl-6,7-dihydro-2H-furo[2,3-f][1,3]benzodioxole-7-carboxamide] | 300 nM | 132%
8 | CC(C)(CO)c1cc2cc(NC(=O)[C@]3(C)COc4cc5c(cc43)OC(F)(F)O5)c(F)cc2n1C[C@@H](O)CO [Example 138, (7S)—N-{1-[(2R)-2,3-dihydroxypropyl]-6-fluoro-2-(1-hydroxy-2-methylpropan-2-yl)-1H-indol-5-yl}-2,2-difluoro-7-methyl-6,7-dihydro-2H-furo[2,3-f][1,3]benzodioxole-7-carboxamide] | 7650 nM | 23%
9 | C[C@]1(C(=O)N[C@@H]2C[C@H](c3ccc(C(=O)O)cc3)Oc3cc(OC(F)F)ccc32)COc2cc3c(cc21)OC(F)(F)O3 [Example 139, 4-[(2R,4R)-7-(difluoromethoxy)-4-{[(7R)-2,2-difluoro-7-methyl-6,7-dihydro-2H-furo[2,3-f][1,3]benzodioxole-7-carbonyl]amino}-3,4-dihydro-2H-1-benzopyran-2-yl]benzoic acid] | 20 nM | 158%
10 | Cc1ccc(NC(=O)[C@@]2(C)COc3cc4c(cc32)OC(F)(F)O4)nc1-c1ccc(C(=O)NS(C)(=O)=O)cc1 [Example 142, (7R)-2,2-difluoro-N-(6-{4-[(methanesulfonyl)carbamoyl]phenyl}-5-methylpyridin-2-yl)-7-methyl-6,7-dihydro-2H-furo[2,3-f][1,3]benzodioxole-7-carboxamide] | 2500 nM | 180%
11 | CC(C)(CO)c1cc2cc(NC(=O)[C@@]3(C)COc4cc5c(cc43)OC(F)(F)O5)c(F)cc2[nH]1 [Example 143, (7R)-2,2-difluoro-N-[6-fluoro-2-(1-hydroxy-2-methylpropan-2-yl)-1H-indol-5-yl]-7-methyl-6,7-dihydro-2H-furo[2,3-f][1,3]benzodioxole-7-carboxamide] | 490 nM | 129%
12 | CCOC(=O)[C@H]1CC[C@H]([C@@H]2C[C@H](NC(=O)[C@@]3(C)COc4cc5c(cc43)OC(F)(F)O5)c3ccc(OC(F)(F)F)cc3O2)CC1 [Example 147, ethyl trans-4-[(2S,4S)-4-{[(7R)-2,2-difluoro-7-methyl-6,7-dihydro-2H-furo[2,3-f][1,3]benzodioxole-7-carbonyl]amino}-7-(trifluoromethoxy)-3,4-dihydro-2H-1-benzopyran-2-yl]cyclohexane-1-carboxylate] | 2240 nM | 79%
13 | CCOC(=O)[C@H]1CC[C@H]([C@H]2C[C@@H](NC(=O)[C@@]3(C)COc4cc5c(cc43)OC(F)(F)O5)c3ccc(OC(F)(F)F)cc3O2)CC1 [Example 148, ethyl trans-4-[(2R,4R)-4-{[(7R)-2,2-difluoro-7-methyl-6,7-dihydro-2H-furo[2,3-f][1,3]benzodioxole-7-carbonyl]amino}-7-(trifluoromethoxy)-3,4-dihydro-2H-1-benzopyran-2-yl]cyclohexane-1-carboxylate] | 41 nM | 145%
14 | CCOC(=O)[C@H]1CC[C@H]([C@@H]2C[C@H](NC(=O)[C@@]3(C)COc4cc5c(cc43)OC(F)(F)O5)c3ccc(OC)cc3O2)CC1 [Example 152, ethyl trans-4-[(2S,4S)-4-{[(7R)-2,2-difluoro-7-methyl-6,7-dihydro-2H-furo[2,3-f][1,3]benzodioxole-7-carbonyl]amino}-7-methoxy-3,4-dihydro-2H-1-benzopyran-2-yl]cyclohexane-1-carboxylate] | 806 nM | 102%
15 | CCOC(=O)[C@H]1CC[C@H]([C@H]2C[C@@H](NC(=O)[C@@]3(C)COc4cc5c(cc43)OC(F)(F)O5)c3ccc(OC)cc3O2)CC1 [Example 153, ethyl trans-4-[(2R,4R)-4-{[(7R)-2,2-difluoro-7-methyl-6,7-dihydro-2H-furo[2,3-f][1,3]benzodioxole-7-carbonyl]amino}-7-methoxy-3,4-dihydro-2H-1-benzopyran-2-yl]cyclohexane-1-carboxylate] | 304 nM | 135%
16 | COc1ccc2c(c1)O[C@H]([C@H]1CC[C@H](C(=O)O)CC1)C[C@@H]2NC(=O)[C@@]1(C)COc2cc3c(cc21)OC(F)(F)O3 [Example 154, trans-4-[(2S,4S)-4-{[(7R)-2,2-difluoro-7-methyl-6,7-dihydro-2H-furo[2,3-f][1,3]benzodioxole-7-carbonyl]amino}-7-methoxy-3,4-dihydro-2H-1-benzopyran-2-yl]cyclohexane-1-carboxylic acid] | 915 nM | 103%
17 | CCOC(=O)[C@H]1CC[C@H]([C@H]2C[C@@H](NC(=O)[C@@]3(C)COc4cc5c(cc43)OC(F)(F)O5)c3ccc(OC(F)F)cc3O2)CC1 [Example 156, ethyl trans-4-[(2R,4R)-7-(difluoromethoxy)-4-{[(7R)-2,2-difluoro-7-methyl-6,7-dihydro-2H-furo[2,3-f][1,3]benzodioxole-7-carbonyl]amino}-3,4-dihydro-2H-1-benzopyran-2-yl]cyclohexane-1-carboxylate] | 90 nM | 142%
18 | CCOC(=O)[C@H]1CC[C@@H]([C@H]2C[C@@H](NC(=O)[C@@]3(C)COc4cc5c(cc43)OC(F)(F)O5)c3ccc(OC(F)(F)F)cc3O2)CC1 [Example 157, ethyl cis-4-[(2R,4R)-4-{[(7R)-2,2-difluoro-7-methyl-6,7-dihydro-2H-furo[2,3-f][1,3]benzodioxole-7-carbonyl]amino}-7-(trifluoromethoxy)-3,4-dihydro-2H-1-benzopyran-2-yl]cyclohexane-1-carboxylate] | 168 nM | 117%
19 | CCOC(=O)[C@H]1CC[C@@H]([C@@H]2C[C@H](NC(=O)[C@@]3(C)COc4cc5c(cc43)OC(F)(F)O5)c3ccc(OC(F)(F)F)cc3O2)CC1 [Example 158, ethyl cis-4-[(2S,4S)-4-{[(7R)-2,2-difluoro-7-methyl-6,7-dihydro-2H-furo[2,3-f][1,3]benzodioxole-7-carbonyl]amino}-7-(trifluoromethoxy)-3,4-dihydro-2H-1-benzopyran-2-yl]cyclohexane-1-carboxylate] | 3670 nM | 111%
20 | CCOC(=O)[C@H]1CC[C@H]([C@@H]2C[C@H](NC(=O)[C@@]3(C)COc4cc5c(cc43)OC(F)(F)O5)c3ccc(OC(F)F)cc3O2)CC1 [Example 159, ethyl trans-4-[(2S,4S)-7-(difluoromethoxy)-4-{[(7R)-2,2-difluoro-7-methyl-6,7-dihydro-2H-furo[2,3-f][1,3]benzodioxole-7-carbonyl]amino}-3,4-dihydro-2H-1-benzopyran-2-yl]cyclohexane-1-carboxylate] | 1020 nM | 82%
21 | C[C@]1(C(=O)N[C@H]2C[C@@H]([C@H]3CC[C@@H](C(=O)O)CC3)Oc3cc(OC(F)(F)F)ccc32)COc2cc3c(cc21)OC(F)(F)O3 [Example 161, cis-4-[(2S,4S)-4-{[(7R)-2,2-difluoro-7-methyl-6,7-dihydro-2H-furo[2,3-f][1,3]benzodioxole-7-carbonyl]amino}-7-(trifluoromethoxy)-3,4-dihydro-2H-1-benzopyran-2-yl]cyclohexane-1-carboxylic acid] | 5090 nM | 101%
